Experiments:
airway smooth muscle = settings: literature (Belvisi, 1998); cited from earlier work
[1] = system: MMP-9 (matrix metalloproteinase 9); experiment: MMP-9 biomarker, patients with PAH, 12 weeks of treatment; type: in vivo, human; settings: treatment for 12 weeks
Description: (§1) In addition, treatment with treprostinil is shown to have positive outcome in the six minute walk test described above.
(§2) 44 patients with PAH received study drug (Remodulin or placebo). 30 patients received Remodulin and 14 received placebo. A 12-week trial was conducted. The mean dose of Remodulin received was 72.5 ng/kg/min at Week 12 (compared to 80.0 ng/kg/min placebo-equivalent). Remodulin produced an 93.0 meter median improvement in the six-minute walk compared to placebo, Hodges-Lehmann estimate, with a 95% CI of 7.0 to 187.0 (p=0.0077) from nonparametric ANCOVA.
(§3) Baseline patients with PAH appeared to have higher-than-normal levels of MMP-9, Ang-2, VEG-F, and PDGF (matrix metalloproteinase 9, angiopoetin-2, vascular endothelium-derived growth factor, and platelet-derived growth factor, respectively).
Further, there was a statistically significant correlation between the degree of decrease in Ang-2 and the degree of improvement in the six-minute walk test.

[2] = system: VEG-F (vascular endothelium-derived growth factor); experiment: Serum VEG-F biomarker, patients with PAH, 12 weeks of treatment; type: in vivo, human; settings: treatment for 12 weeks
Description: as §1, §2, §3

[3] = type: in vivo, human; settings: patients with PAH, 12-week trial
Description: The effect of treprostinil (in the form of Remodulin or inhaled treprostinil) on patients is analyzed using the 6-minute walk test with Borg dyspnea score, a standard assessment of exercise capacity and breathlessness in patients with lung disease. See Guyatt, G. Sullivan, M. et al. (Canada Medical Assoc. J. Vol. 132, 1985). The Six-Minute Walk corresponds closely to the demands of everyday activity and is a safe and simple measurement of functional exercise capacity for clinical trials in patients.
The area used for the Six-Minute Walk test should be pre-measured at a minimum of 108 feet (33 meters) in length and at least 6 to 10 feet (2 to 3 meters) in width. The length should be marked with half-yard (0.5 meter) gradations. The area should be well ventilated with air temperature controlled at 20 to 23° C. ([…].).
The tester may be at the starting end of the corridor or at the midpoint of the corridor with a stop-watch. Intermittent rest periods are allowed if the patient can no longer continue. If the patient needs to rest briefly, he/she may stand or sit and then begin again when he/she is sufficiently rested but the clock will continue to run. At the end of six minutes, the tester will call “stop” while simultaneously stopping the watch and then measure the distance walked. The Borg Dyspnea Rating is then administered.
No other instruction or encouragement are given during the test. Eye contact with the patient should be avoided during the test. Following the walk, the person administering the test obtains a rating of dyspnea using the Borg Scale. The person uses the following dialogue:
“I would like to use the following scale to indicate the maximal shortness of breath you had during the walk test (indicate the Borg Scale). […]

[4] = system: PDGF (platelet-derived growth factor); experiment: PDGF biomarker, patients with PAH, 12 weeks of treatment; type: in vivo, human; settings: treatment for 12 weeks
Description: as §1, §2, §3

Ang-2 (angiopoetin-2) = experiment: Serum Ang-2 biomarker, patients with PAH, 12 weeks of treatment; type: in vivo, human; settings: treatment for 12 weeks
Description: as §1, §2, §3

[5] = system: lung myeloid dendritic cells; settings: literature (Idzko, 2007), cited from earlier work

CCCCC[C@H](O)/C=C/[C@@H]1[C@H]2C/C(=C/CCCC(=O)O)O[C@H]2C[C@H]1O [PGI2]
effect on airway smooth muscle proliferation (airway smooth muscle): antiproliferative effect

CCCCC[C@H](O)CC[C@@H]1[C@H]2Cc3cccc(OCC(=O)[O-])c3C[C@H]2C[C@H]1O.[Na+] [Remodulin]
degree of change in MMP-9 [1]: not significant | serum VEG-F [2]: significantly decreased | median improvement in the six-minute walk compared to placebo, Hodges-Lehmann estimate ([3]; mean dose 72.5 ng/kg/min at Week 12, 95% CI of 7.0 to 187.0, p=0.0077, nonparametric ANCOVA): 93.0 meter | Borg Dyspnea score, median improvement over placebo ([3]; p=0.23): 2.0 | combined ranking of 6MW/Borg Score Index ([3]; vs placebo, p=0.0023): significantly improved | PDGF [4]: strong trend toward decreased | serum Ang-2 (Ang-2 (angiopoetin-2)): significantly decreased

CC#CCC(C)[C@H](O)/C=C/[C@@H]1[C@H]2C/C(=C/CCCC(=O)O)C[C@H]2C[C@H]1O (stereo partly shown) [iloprost]
anti-inflammatory effects in a mouse model of asthma [5]: anti-inflammatory effects | induction of allergen-specific Th2 response in mediastinal lymph nodes ([5]; mouse model of asthma): abolishing the induction

— US20140018431A1 (priority 2007, published 2014)
